Measured values from patent US20140163083A1, “NOVEL CRYSTALLINE SALTS OF ASENAPINE” (SANDOZ AG, priority 2011, published 2014).
Where a name gives a salt, the structure may show the parent alone.

How the values were obtained:
[1] = Saturated solution of the maleate salt (Funke et al., literature); type: physicochemical; details: water, thermodynamic from solid; translated from saturated solution of the maleate at 23° C., pH=4.4; read-out: free base solubility
[2] = 23° C., pH=4.4; cited from earlier work
[3] = Hygroscopic nature by dynamic vapor sorption; type: physicochemical; details: relative humidities greater than about 20%
Source text: The hygroscopic nature of the succinate salt hemihydrate was investigated by dynamic vapor sorption.

Row | Compound | solubility [1] [µg/mL] | concentration of saturated solution [2] [µg/mL] | water content by dynamic vapor sorption [3] [%]
1 | CN1C[C@@H]2c3ccccc3Oc3ccc(Cl)cc3[C@H]2C1 (relative stereo) [maleate salt of Asenapine, trans-5-chloro-2-methyl-2,3,3a,12b-tetrahydro-1H-dibenz[2,3:6,7]oxepino[4,5-c]pyrrole] | ~4100 | 5800 | –
2 | Asenapine succinate form I [succinate salt hemihydrate] | – | – | 2 to 2.5
